Assay: gradient 5% acetonitrile 3 min, to 50% in 2 min, to 85% in 15 min, held 3 min, 100 µL/min
Settings: column: Zorbax Extend-C18 2.1 x 50 mm; eluents: water / acetonitrile, 0.1% formic acid
In short: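 Pure standards were run in mixtures of ~100 molecules by HPLC coupled to a quadrupole time-of-flight mass spectrometer. The column was a Zorbax Extend-C18 (2.1 × 50 mm, 1.8 μm) at 100 μL/min, with water and acetonitrile each containing 0.1% formic acid, in positive and negative ionization mode. Dead and dwell volumes were 40 μL and 900 μL. Retention time was taken from computationally picked adduct peaks, each manually inspected, with data collected over 3 months.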

Row | SMILES | RP-LC retention time
1 | O=C(Nc1cccc(Cl)c1)c1nnn(-c2ccc(F)cc2)c1-c1cccnc1 | 963 s
2 | COC(=O)CN1CN(c2ccccc2)C2(CCN(Cc3cccc4ccccc34)CC2)C1=O | 729 s
3 | CCOc1ccc(C2c3[nH]c4ccccc4c3CCN2C(=O)C2CCC2)cc1 (stereo unspecified) | 1210 s
4 | O=C1CC(C(=O)N2CCN(Cc3ccccc3)CC2)CN1CCc1c[nH]c2ccc(F)cc12 (stereo unspecified) | 634 s
5 | CCc1ccc(-c2ccc(-n3nc(C)c(S(=O)(=O)N4CCCC4)c3C)nn2)cc1 | 1170 s
6 | Nc1ccc2c(c1)CN1C(=O)c3ccccc3C1=N2 | 639 s
7 | Cc1cc(Br)ccc1NC(=O)CCc1nc(C2=CCN(C)CC2)no1 | 642 s
8 | CCN1C(=O)C2(CCN(S(=O)(=O)c3cc(F)ccc3C)CC2)c2ccccc21 | 1130 s
9 | CN1CCN(CCSC2Cc3cc(Cl)ccc3Sc3ccccc32)CC1 (stereo unspecified) | 761 s
10 | Cn1cc(C2=CCN(S(=O)(=O)Cc3ccccc3)CC2)c2cccnc21 | 898 s
11 | Cc1ccc(-c2nc3ncccn3c2Nc2ccc3c(c2)OCCO3)cc1 | 684 s
12 | O=C(Nc1cccc(Cl)c1)c1c(O)c2cccnc2n(-c2cccc(F)c2)c1=O | 1360 s
13 | COc1ccc(NC(=O)C2CCc3nc(N4CCCCC4)ncc3C2)cc1C(F)(F)F (stereo unspecified) | 894 s
14 | CN(C)C(=O)C1CCN(c2nc3ccc(-c4cccc(F)c4)nc3s2)CC1 | 905 s
15 | CC(C)c1ccccc1NC(=O)C1CCN(S(C)(=O)=O)c2ccccc2O1 (stereo unspecified) | 945 s
16 | CS(=O)(=O)N1CCN(C(=O)c2ccsc2)CC1 | 606 s
17 | O=C(Nc1ccc2c(c1)OCCO2)C1CCN(c2cncnc2N2CCCCC2)CC1 | 673 s
18 | Cc1ccc(C)c(C(=O)N2CCc3nc(-c4ccc(F)cc4)ncc3C2)c1 | 1060 s
19 | CCCN1C(=O)c2cc(S(=O)(=O)Nc3ccc(C)cc3)ccc2Oc2cccnc21 | 1100 s
20 | CCn1nccc1-c1cccc(-c2noc(-c3ccc(F)c(F)c3)n2)c1 | 1270 s
21 | O=c1n(Cc2cccc(F)c2)nc2ccc(S(=O)(=O)N3CCCCC3)cn12 | 952 s

Row | SMILES | RP-LC retention time
22 | Cc1ccc(-c2noc(Cc3nc(-c4cccc(Cl)c4)cs3)n2)cc1 | 1040 s
23 | CN(C)[C@@H]1CN(C(=O)COc2ccc(Cl)cc2)C[C@H]1CO | 598 s
24 | Cc1[nH]c(C(=O)N2CCCC(C(=O)NCCN3CCCCCC3)C2)c(C)c1C(=O)OC(C)C (stereo unspecified) | 654 s
25 | Cc1ccc(F)c(Nc2ncccc2S(N)(=O)=O)c1 | 826 s
26 | O=C(NCc1cccc(Br)c1)C1CCCN(c2ccc(=O)n(-c3ccc(F)cc3)n2)C1 (stereo unspecified) | 1050 s
27 | COc1cccc(C(=O)N2CCN(c3cc(-c4cccs4)[nH]n3)CC2)c1OC | 722 s
28 | CCOc1cc(C(=O)N2CCN(c3cc(=O)n(C)c(=O)n3C)CC2)cc(OCC)c1OCC | 730 s
29 | Cc1ccc2ncn(C3CCN(S(=O)(=O)c4ccccc4C)CC3)c(=O)c2c1 | 929 s
30 | CC(C)c1cc(-c2nnc3sc(COc4ccc(Cl)cc4)nn23)n[nH]1 | 900 s
31 | O=S(=O)(c1ccc(-c2cc(C(F)(F)F)on2)o1)N1CCCCC1 | 1110 s
32 | CCc1nccn1Cc1nc(-c2ccc3c(c2)OCO3)no1 | 621 s
33 | O=C(Cn1nc(N2CCOCC2)c2ccccc2c1=O)Nc1cccc(Cl)c1 | 846 s
34 | N#Cc1cnc2ccccc2c1N1CCC(C(=O)N2CCc3ccccc3C2)CC1 | 711 s
35 | Cc1ccccc1NC(=O)N1CCC2(CC1)Nc1ccccc1-n1cccc12 | 982 s
36 | O=C(C1=CCN(Cc2ccccc2)CC1)N1CCN(c2ccc(F)cc2)CC1 | 655 s
37 | O=C1C(Cl)=C(NCCc2ccccc2)C(=O)c2ccccc21 | 1190 s
38 | CCC(=O)N1CCc2cc(N3CC(C(=O)NCc4ccccc4C)CC3=O)ccc21 (stereo unspecified) | 750 s
39 | NC(=O)c1c([N+](=O)[O-])cc(C(F)(F)F)cc1[N+](=O)[O-] | 702 s
40 | Cc1sc(C)c(S(=O)(=O)NCc2ccccc2)c1-c1cc(C(F)(F)F)on1 | 1140 s
41 | O=C(NC1CCN(c2cc(-c3ccc(F)cc3)[nH]n2)C1)c1cccs1 (stereo unspecified) | 699 s

Further lines, results first:

Row | RP-LC retention time | SMILES
42 | 964 s | CCNc1nc(N(CC)CC)nc(-n2cnc(SC)n2)n1
43 | 884 s | O=C(CN1C(=O)CC(c2cccs2)=Nc2ccccc21)NC1CCCCC1
44 | 539 s | O=C(Cn1nc2ncccn2c1=O)NCc1ccco1
45 | 715 s | O=C(NCCC1CCN(C(=O)Nc2cc(F)ccc2F)CC1)C1CC1
46 | 1170 s | CCC(Sc1ncnc2c1cnn2-c1ccc(F)cc1)C(=O)OC (stereo unspecified)
47 | 825 s | CCCCC(=O)N1CCCN(C2=NS(=O)(=O)C(c3ccc(F)cc3)=C2C)CC1
48 | 809 s | O=C(NCCc1csc(-c2cccs2)n1)C1CCN(C(=O)c2ccc(F)c(F)c2)CC1
49 | 660 s | COc1ccc(Cl)cc1S(=O)(=O)N1CCCC(C(=O)NCc2ccccn2)C1 (stereo unspecified)
50 | 706 s | O=C(Cn1cccc(-c2nc(-c3ccc(F)cc3)no2)c1=O)NCC1CCCO1 (stereo unspecified)
51 | 816 s | O=C(CCC(=O)Nc1noc2ccccc12)NCCc1ccc(Cl)cc1
52 | 947 s | CCOc1ccc2nc(C(=O)NCc3ccccc3Br)cn2n1
53 | 574 s | COC[C@@H]1CN(C(=O)c2ccoc2C)C[C@H]1c1nc(C2CC2)no1
54 | 998 s | Cc1cc(NC(=O)Cn2c(=O)cc(-c3nc(C4CC4)no3)c3ccccc32)ccc1F
55 | 1230 s | CCCCCc1ccc(/C=C/C(=O)Nc2ccccc2C(=O)O)cc1
56 | 766 s | NS(=O)(=O)c1ccc2nc(NC(=O)COc3ccc(Cl)cc3)sc2c1
57 | 719 s | CC(C)(C)c1ccc(NC(=O)CSc2ncn[nH]2)cc1
58 | 1000 s | O=C(NCC(F)F)c1cc2c(s1)N(CC1CC1)CCCC2
59 | 625 s | Cc1c(C(=O)C(=O)NCc2ccccn2)c2ccccc2n1C
60 | 662 s | Cn1cc(S(=O)(=O)N2CCC(C(=O)Nc3nccs3)CC2)cc1C(=O)N1CCCC1
61 | 594 s | CSc1ccccc1C(=O)Nc1nc(CN2CCc3ccccc3C2)cs1
62 | 709 s | CCn1cnc(S(=O)(=O)N2CCC(C(=O)Nc3ccc(F)cc3)CC2)c1
63 | 1100 s | Cc1cccc(C)c1NC(=O)CSC1=Nc2ccccc2N=C(c2ccccc2)C1
64 | 604 s | CNC(=O)[C@@H]1CN(C(=O)Cc2ccc(Br)cc2)C[C@H]1CO
65 | 1010 s | CC(=O)c1cccc(NC(=O)COc2ccc(C(C)(C)C)cc2)c1
66 | 663 s | Cn1cnc(S(=O)(=O)N2CCC(C(=O)NCCc3ccccc3)CC2)c1

Row | RP-LC retention time | SMILES
67 | 700 s | CCn1cc(C(CNC(=O)Nc2ccc(OC)cc2OC)c2cccnc2)c2ccccc21 (stereo unspecified)
68 | 827 s | CCOc1ccccc1NC(=O)N1CCc2cn(CCOC)c3cccc(c23)C1
69 | 630 s | C=CCNC(=O)C1COc2ccccc2O1 (stereo unspecified)
70 | 826 s | COc1cccc(Sc2ccc(N3CCCC(C(=O)NCc4ccc5c(c4)OCO5)C3)nn2)c1 (stereo unspecified)
71 | 601 s | CC(C)CCn1c(CCCC(=O)Nc2ccncc2)nc2cccnc21
72 | 951 s | COC(=O)c1ccccc1NC(=O)C12CCC(C1)C(C)(C)C2=O (stereo unspecified)
73 | 628 s | CSc1ccccc1C(=O)N1CCC(C(=O)NCc2nc(C)no2)CC1
74 | 677 s | Cc1nnc2ccc(NC(=O)Nc3cccc(F)c3)cn12
75 | 646 s | O=C(Cn1cnc2nc(N3CCCC(C(=O)NC4CC4)C3)sc2c1=O)NCc1ccccc1 (stereo unspecified)
76 | 912 s | CCS(=O)(=O)c1ccc(-c2cccc(NC(=O)c3ccc4ccccc4n3)c2)nn1
77 | 653 s | C=CCNC(=O)Nc1nc(CSC)cs1
78 | 880 s | Cc1ccc(C)c(NC(=O)Cn2c(=O)nc(N3CCC(C)CC3)c3ccccc32)c1
79 | 680 s | CCOC(=O)Cc1ccc(NC(=O)NCc2c(C)nn(C)c2C)cc1
80 | 951 s | Cc1nc(-c2csc(S(=O)(=O)N3CCCC(C(=O)Nc4cccc(C)c4C)C3)c2)no1 (stereo unspecified)
81 | 699 s | CCCNc1c(C(=O)OC)c(=O)[nH]c2ccc(F)cc12
82 | 1090 s | CCn1cc(C(=O)Nc2cccc(Br)c2)c2nn(-c3ccccc3)c(=O)c-2c1
83 | 807 s | CN1C(=O)c2cc(C(=O)NCc3cccc(Br)c3)nn2CC1(C)C(=O)NC1CCCC1 (stereo unspecified)
84 | 624 s | Cc1cccc(NC(=O)CC(=O)Nc2ccc3nc4n(c(=O)c3c2)CCCCC4)n1
85 | 641 s | CCc1ccc(CNC(=S)Nc2ccc3nc(N4CCN(C)CC4)cc(C)c3c2)cc1
86 | 625 s | C=CCNC(=O)C(=O)N1CCN(c2ccc(OC)cc2)CC1
87 | 718 s | O=C(NCCCn1c(-c2ccncc2)nc2cccnc21)Nc1ccc(Br)cc1F
88 | 760 s | CC(C)(C)OC(=O)N1CCN(c2ncc(C(=O)Nc3ccccc3)c(N)n2)CC1
89 | 787 s | COC(=O)c1ccccc1NCCO
90 | 785 s | Cc1ccsc1C(=O)NCC12CCCC=C1N(C)C(=O)CC2 (stereo unspecified)
91 | 909 s | O=C(NCc1ccc(F)c(Cl)c1)c1ccc(NC(=O)C2CCC2)cc1N1CCOCC1

Source: the METLIN SMRT retention time set (Domingo-Almenara et al. 2019)
